Assay results published in ChEMBL document CHEMBL3817795, “Identification and optimisation of a series of N-(4-anilino-2-pyridyl)acetamide activin receptor-like kinase 1 (ALK1) inhibitors” (Medchemcomm, 2016).

Assays:
[1] = Oral bioavailability in Han Wistar rat; assay type: ADME, organism-based; settings: in vivo
[2] = molecular target: Dual specificity tyrosine-phosphorylation-regulated kinase 1A (Homo sapiens) (UniProt Q13627); assay: Inhibition of human recombinant DYRK1A (1 to 499 residues) expressed in Escherichia coli at 1 uM using KKISGRLSPIMTEQ as substrate after 30 mins
[3] = molecular target: Ribosomal protein S6 kinase alpha-3 (Homo sapiens) (UniProt P51812); assay: Inhibition of MAPKAPK1B (unknown origin) at 1 uM
[4] = molecular target: Mitogen-activated protein kinase 11 (Homo sapiens) (UniProt Q15759); assay: Inhibition of human recombinant full-length p38beta at 1 uM after 30 mins
[5] = molecular target: Proto-oncogene tyrosine-protein kinase Src (Homo sapiens) (UniProt P12931); assay: Inhibition of human recombinant full-length Src expressed in insect Sf21 cells at 1 uM using KVEKIGEGTYGVVYK as substrate after 30 mins
[6] = Ratio of free drug level in nude mouse at 5 umol/kg administered as single dose after 24 hrs to IC50 for ALK1 in HMEC-1; assay type: ADME; settings: in vivo
[7] = system: RAC-beta serine/threonine-protein kinase (Homo sapiens), P31751 [S474D]; assay: Inhibition of human recombinant AKT2 S474D mutant (120 to 481 residues) expressed in insect Sf21 cells at 1 uM using GRPRTSSFAEGKK as substrate after 30 mins
[8] = molecular target: T1, Activin receptor type-1-like (Homo sapiens, UniProt P37023); assay: Inhibition of ALK1 in HMEC-1 assessed as translocation of pSMAD1/5
[9] = molecular target: Calcium/calmodulin-dependent protein kinase kinase 2 (Homo sapiens) (UniProt Q96RR4); assay: Inhibition of human recombinant full-length CAMKKbeta expressed in Escherichia coli at 1 uM using AKPKGNKDYHLQTCCGSLAYRRR as substrate
[10] = molecular target: Inhibitor of nuclear factor kappa-B kinase subunit beta (Homo sapiens) (UniProt O14920); assay: Inhibition of human recombinant full-length IKKbeta expressed in insect Sf21 cells at 1 uM using LDDRHDSGLDSMKDEEY as substrate after 30 mins
[11] = molecular target: Inhibitor of nuclear factor kappa-B kinase subunit epsilon (Homo sapiens) (UniProt Q14164); assay: Inhibition of human recombinant full-length IKKepsilon expressed in insect Sf21 cells at 1 uM using MBP as substrate after 30 mins
[12] = molecular target: Mitogen-activated protein kinase 8 (Homo sapiens) (UniProt P45983); assay: Inhibition of JNK1 (unknown origin) at 1 uM after 30 mins
[13] = molecular target: Dual specificity tyrosine-phosphorylation-regulated kinase 3 (Homo sapiens) (UniProt O43781); assay: Inhibition of human recombinant full-length DYRK3 expressed in Escherichia coli at 1 uM using KKISGRLSPIMTEQ as substrate after 30 mins
[14] = Lipophilicity, log D of the compound at pH 7.4; assay type: physicochemical; settings: buffer
[15] = molecular target: Serine/threonine-protein kinase Chk2 (Homo sapiens) (UniProt O96017); assay: Inhibition of human recombinant CHK2 (5 to 543 residues) expressed in Escherichia coli at 1 uM after 30 mins
[16] = molecular target: Fibroblast growth factor receptor 1 (Homo sapiens) (UniProt P11362); assay: Inhibition of human recombinant FGFR1 (400 to 820 residues) expressed in insect Sf21 cells at 1 uM using poly(Glu4-Tyr1) as substrate after 30 mins
[17] = molecular target: Vascular endothelial growth factor receptor 1 (Homo sapiens) (UniProt P17948); assay: Inhibition of human recombinant full-length FLT1 at 1 uM after 30 mins
[18] = molecular target: Protein kinase C alpha type (Homo sapiens) (UniProt P17252); assay: Inhibition of human recombinant full-length PKCa expressed in insect Sf21 cells at 1 uM using histone H1 as substrate after 30 mins
[19] = molecular target: Serine/threonine-protein kinase PLK1 (Homo sapiens) (UniProt P53350); assay: Inhibition of human recombinant full-length PLK1 expressed in insect Sf21 cells at 1 uM using ISDELMDATFADQEAKKK as substrate after 30 mins
Homo sapiens = species: Homo sapiens; assay: Inhibition of human recombinant full-length PKA expressed in Escherichia coli at 1 uM using LRRASLG as substrate after 30 mins
[20] = molecular target: MAP kinase-activated protein kinase 5 (Homo sapiens) (UniProt Q8IW41); assay: Inhibition of MAPKAPK5 (unknown origin) at 1 uM
[21] = molecular target: Ephrin type-A receptor 2 (Homo sapiens) (UniProt P29317); assay: Inhibition of human recombinant EPHA2 receptor (591 to 976 residues) expressed in insect Sf21 cells at 1 uM using poly(Glu4-Tyr1) as substrate after 30 mins
[22] = molecular target: T1, Activin receptor type-1-like; assay: Inhibition of human recombinant GST-tagged ALK1 expressed in baculovirus by FRET assay
[23] = molecular target: Cyclin-dependent kinase 2 (Homo sapiens) (UniProt P24941); assay: Inhibition of human recombinant full-length CDK2 expressed in Escherichia coli at 1 uM after 30 mins
[24] = molecular target: Tyrosine-protein kinase BTK (Homo sapiens) (UniProt Q06187); assay: Inhibition of BTK (unknown origin) at 1 uM
[25] = molecular target: Lymphokine-activated killer T-cell-originated protein kinase (Homo sapiens) (UniProt Q96KB5); assay: Inhibition of human recombinant full-length PBK at 1 uM after 30 mins
[26] = AUC in Han Wistar rat at 5 umol/kg; assay type: ADME, organism-based; settings: in vivo
[27] = molecular target: Mitogen-activated protein kinase 14 (Homo sapiens) (UniProt Q16539); assay: Inhibition of human recombinant full-length p38alpha at 1 uM after 30 mins
TGF-beta receptor type-1 = TGF-beta receptor type-1 (Homo sapiens, UniProt P36897); assay: Inhibition of full length human N-terminal GST-tagged ALK5 expressed in baculovirus by FRET assay
[28] = molecular target: Tyrosine-protein kinase Yes (Homo sapiens) (UniProt P07947); assay: Inhibition of human recombinant full-length YES1 expressed in insect Sf21 cells at 1 uM using poly(Glu4-Tyr1) as substrate after 30 mins
[29] = molecular target: Calcium/calmodulin-dependent protein kinase type 1D (Homo sapiens) (UniProt Q8IU85); assay: Inhibition of CAMK1d (unknown origin) at 1 uM
[30] = molecular target: Serine/threonine-protein kinase 26 (Homo sapiens) (UniProt Q9P289); assay: Inhibition of MST4 (unknown origin) at 1 uM
[31] = molecular target: Homeodomain-interacting protein kinase 2 (Homo sapiens) (UniProt Q9H2X6); assay: Inhibition of human recombinant HIPK2 (165 to 564 residues) expressed in Escherichia coli at 1 uM after 30 mins
[32] = molecular target: Proto-oncogene tyrosine-protein kinase Src (Homo sapiens) (UniProt P12931); assay: Inhibition of Src (unknown origin) by HTRF assay
[33] = molecular target: 3-phosphoinositide-dependent protein kinase 1 (Homo sapiens) (UniProt O15530); assay: Inhibition of PDPK1 (unknown origin) at 1 uM
[34] = molecular target: TGF-beta receptor type-1 (Homo sapiens) (UniProt P36897); assay: Inhibition of ALK5 in recombinant human MDA-MB-468 cells assessed as translocation of GFP-smad2; assay type: cell-based

T1 sequence (P37023 whole entry): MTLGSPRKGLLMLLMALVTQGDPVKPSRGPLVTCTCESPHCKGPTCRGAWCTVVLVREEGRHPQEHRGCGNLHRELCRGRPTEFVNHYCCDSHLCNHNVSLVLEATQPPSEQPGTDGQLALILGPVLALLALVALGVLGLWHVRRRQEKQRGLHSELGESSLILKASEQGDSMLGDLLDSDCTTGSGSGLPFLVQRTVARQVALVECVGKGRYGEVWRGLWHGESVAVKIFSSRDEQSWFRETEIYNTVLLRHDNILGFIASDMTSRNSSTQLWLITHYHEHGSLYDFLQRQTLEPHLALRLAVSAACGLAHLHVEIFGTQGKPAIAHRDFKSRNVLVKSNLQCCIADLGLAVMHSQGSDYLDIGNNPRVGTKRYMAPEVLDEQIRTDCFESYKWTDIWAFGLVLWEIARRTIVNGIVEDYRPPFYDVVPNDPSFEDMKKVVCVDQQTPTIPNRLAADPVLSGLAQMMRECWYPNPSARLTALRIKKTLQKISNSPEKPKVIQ
Chain of Proto-oncogene tyrosine-protein kinase Src (Homo sapiens) (P12931 2-536 limits assumed): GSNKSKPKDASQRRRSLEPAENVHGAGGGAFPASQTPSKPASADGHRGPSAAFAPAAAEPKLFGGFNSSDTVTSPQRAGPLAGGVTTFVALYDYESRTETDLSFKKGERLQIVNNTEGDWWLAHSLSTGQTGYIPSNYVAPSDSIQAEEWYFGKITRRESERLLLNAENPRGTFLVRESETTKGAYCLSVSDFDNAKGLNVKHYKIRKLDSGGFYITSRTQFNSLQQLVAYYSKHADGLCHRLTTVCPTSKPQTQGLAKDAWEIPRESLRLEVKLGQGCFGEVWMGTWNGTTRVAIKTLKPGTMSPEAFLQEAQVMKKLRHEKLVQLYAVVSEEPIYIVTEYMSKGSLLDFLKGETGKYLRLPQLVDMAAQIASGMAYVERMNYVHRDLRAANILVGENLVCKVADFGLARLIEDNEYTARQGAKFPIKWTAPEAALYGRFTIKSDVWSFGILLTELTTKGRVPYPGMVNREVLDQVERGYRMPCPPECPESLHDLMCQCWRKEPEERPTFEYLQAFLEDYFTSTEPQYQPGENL
Chain of Inhibitor of nuclear factor kappa-B kinase subunit epsilon (Homo sapiens) (Q14164 whole entry): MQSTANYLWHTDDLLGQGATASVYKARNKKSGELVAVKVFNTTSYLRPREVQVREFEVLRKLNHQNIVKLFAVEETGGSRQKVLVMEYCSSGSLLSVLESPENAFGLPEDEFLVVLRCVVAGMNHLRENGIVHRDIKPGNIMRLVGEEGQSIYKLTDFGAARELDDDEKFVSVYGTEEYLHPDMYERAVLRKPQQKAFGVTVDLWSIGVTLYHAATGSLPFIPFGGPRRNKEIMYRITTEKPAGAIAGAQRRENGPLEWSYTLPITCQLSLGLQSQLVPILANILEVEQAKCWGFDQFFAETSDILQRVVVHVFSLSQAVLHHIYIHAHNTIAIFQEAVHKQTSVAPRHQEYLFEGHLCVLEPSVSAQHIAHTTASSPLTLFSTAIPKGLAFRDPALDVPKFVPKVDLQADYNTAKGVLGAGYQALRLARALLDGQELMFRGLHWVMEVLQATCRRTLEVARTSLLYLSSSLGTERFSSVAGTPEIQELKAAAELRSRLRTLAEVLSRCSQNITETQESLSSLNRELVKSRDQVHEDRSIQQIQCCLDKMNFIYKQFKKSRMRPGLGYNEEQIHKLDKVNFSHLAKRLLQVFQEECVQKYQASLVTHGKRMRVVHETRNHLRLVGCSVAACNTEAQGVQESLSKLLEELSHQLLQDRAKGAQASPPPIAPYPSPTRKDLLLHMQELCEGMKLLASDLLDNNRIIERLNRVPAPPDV
Chain of Dual specificity tyrosine-phosphorylation-regulated kinase 3 (Homo sapiens) (O43781 whole entry): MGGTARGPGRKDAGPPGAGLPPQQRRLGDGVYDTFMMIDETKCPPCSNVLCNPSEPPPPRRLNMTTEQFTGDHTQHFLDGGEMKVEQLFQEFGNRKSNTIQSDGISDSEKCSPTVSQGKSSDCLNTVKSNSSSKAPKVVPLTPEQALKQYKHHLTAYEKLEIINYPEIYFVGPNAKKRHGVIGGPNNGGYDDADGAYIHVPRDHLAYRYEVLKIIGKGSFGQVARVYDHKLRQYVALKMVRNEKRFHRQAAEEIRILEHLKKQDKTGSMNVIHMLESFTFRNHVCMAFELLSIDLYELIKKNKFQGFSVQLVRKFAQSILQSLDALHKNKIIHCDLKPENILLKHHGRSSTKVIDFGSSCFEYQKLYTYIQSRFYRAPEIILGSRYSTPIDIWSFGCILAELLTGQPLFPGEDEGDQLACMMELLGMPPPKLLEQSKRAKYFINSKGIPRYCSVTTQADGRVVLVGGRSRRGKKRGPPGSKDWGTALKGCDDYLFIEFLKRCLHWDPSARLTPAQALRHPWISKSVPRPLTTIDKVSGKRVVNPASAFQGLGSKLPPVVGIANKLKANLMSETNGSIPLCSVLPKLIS
Chain of Homeodomain-interacting protein kinase 2 (Homo sapiens) (Q9H2X6 whole entry, looked up, the tested form may be a part): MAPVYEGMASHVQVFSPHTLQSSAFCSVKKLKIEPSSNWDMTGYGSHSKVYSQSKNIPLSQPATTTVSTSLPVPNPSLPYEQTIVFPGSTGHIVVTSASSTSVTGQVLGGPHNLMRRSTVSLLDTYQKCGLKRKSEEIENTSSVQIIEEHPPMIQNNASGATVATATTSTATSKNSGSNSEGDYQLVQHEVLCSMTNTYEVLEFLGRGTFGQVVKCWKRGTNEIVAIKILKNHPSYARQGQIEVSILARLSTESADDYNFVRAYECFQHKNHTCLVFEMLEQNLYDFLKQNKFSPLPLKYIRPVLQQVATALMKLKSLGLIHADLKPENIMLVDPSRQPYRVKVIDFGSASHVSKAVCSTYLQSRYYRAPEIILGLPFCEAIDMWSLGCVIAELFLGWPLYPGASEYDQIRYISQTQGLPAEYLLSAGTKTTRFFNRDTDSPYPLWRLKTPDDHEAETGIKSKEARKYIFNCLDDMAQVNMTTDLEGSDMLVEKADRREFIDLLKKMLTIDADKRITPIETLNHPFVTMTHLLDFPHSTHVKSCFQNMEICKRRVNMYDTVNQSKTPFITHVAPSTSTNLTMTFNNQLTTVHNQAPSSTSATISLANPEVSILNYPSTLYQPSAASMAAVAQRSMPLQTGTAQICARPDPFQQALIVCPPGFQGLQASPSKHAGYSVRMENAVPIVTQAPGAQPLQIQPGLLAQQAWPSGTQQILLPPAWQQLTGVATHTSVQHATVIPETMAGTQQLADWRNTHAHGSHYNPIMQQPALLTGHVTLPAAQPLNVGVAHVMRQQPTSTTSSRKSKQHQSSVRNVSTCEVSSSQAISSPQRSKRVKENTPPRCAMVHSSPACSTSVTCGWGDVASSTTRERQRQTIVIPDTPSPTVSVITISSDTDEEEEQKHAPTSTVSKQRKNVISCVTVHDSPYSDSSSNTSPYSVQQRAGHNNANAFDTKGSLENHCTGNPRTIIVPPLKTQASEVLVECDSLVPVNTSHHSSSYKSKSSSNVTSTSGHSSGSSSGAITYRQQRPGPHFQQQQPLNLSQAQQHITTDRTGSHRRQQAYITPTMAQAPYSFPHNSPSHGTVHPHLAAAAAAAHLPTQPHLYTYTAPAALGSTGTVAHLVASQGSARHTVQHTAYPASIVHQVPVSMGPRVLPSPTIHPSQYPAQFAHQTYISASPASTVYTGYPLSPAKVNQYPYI
Chain of Lymphokine-activated killer T-cell-originated protein kinase (Homo sapiens) (Q96KB5 whole entry): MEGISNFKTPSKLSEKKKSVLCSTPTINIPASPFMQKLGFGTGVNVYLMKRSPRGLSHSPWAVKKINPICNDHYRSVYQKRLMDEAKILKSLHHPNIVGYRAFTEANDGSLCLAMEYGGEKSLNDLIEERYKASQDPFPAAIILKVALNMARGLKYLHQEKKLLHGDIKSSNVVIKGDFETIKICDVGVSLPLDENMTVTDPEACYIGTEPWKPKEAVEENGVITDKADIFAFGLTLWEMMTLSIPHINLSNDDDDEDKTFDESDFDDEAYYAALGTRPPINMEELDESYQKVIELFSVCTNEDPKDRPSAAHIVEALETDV
Chain of Fibroblast growth factor receptor 1 (Homo sapiens) (P11362 22-822 limits assumed): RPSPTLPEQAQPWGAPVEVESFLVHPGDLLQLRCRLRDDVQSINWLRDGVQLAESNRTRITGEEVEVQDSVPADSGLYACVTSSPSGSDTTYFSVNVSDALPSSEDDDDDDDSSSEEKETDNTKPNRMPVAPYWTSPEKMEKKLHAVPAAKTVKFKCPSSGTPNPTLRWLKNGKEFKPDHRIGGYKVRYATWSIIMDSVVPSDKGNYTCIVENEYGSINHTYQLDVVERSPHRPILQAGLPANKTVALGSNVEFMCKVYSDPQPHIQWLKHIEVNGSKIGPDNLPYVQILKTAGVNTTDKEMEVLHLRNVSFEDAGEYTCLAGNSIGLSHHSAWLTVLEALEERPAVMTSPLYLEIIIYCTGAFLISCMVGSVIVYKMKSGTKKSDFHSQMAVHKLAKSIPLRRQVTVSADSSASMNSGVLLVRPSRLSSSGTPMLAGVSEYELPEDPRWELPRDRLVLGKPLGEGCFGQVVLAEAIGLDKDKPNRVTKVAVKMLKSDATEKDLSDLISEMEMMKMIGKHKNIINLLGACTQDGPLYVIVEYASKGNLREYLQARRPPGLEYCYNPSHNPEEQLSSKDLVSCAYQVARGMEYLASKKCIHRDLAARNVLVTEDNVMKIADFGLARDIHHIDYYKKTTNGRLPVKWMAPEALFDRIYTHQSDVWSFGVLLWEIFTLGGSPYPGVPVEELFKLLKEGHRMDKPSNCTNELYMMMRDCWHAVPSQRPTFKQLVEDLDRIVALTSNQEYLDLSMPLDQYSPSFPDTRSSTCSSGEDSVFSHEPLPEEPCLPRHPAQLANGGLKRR
Chain of Mitogen-activated protein kinase 11 (Homo sapiens) (Q15759 whole entry): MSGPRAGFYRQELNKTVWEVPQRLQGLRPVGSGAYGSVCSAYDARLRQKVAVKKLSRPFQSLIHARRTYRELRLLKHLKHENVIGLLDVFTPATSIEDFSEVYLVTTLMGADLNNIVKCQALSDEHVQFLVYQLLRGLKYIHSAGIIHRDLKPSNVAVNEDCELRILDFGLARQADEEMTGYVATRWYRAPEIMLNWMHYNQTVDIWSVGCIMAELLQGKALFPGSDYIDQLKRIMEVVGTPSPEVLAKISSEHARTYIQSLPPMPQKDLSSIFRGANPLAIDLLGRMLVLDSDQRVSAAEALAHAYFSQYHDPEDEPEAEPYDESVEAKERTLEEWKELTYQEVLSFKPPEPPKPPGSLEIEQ

O=C(Nc1cc(Nc2c(Cl)cnc3c2OCO3)ccn1)C1CC1
bioavailability [1]: 38%
inhibition [2]: < 80%
inhibition [3]: < 80%
inhibition [4]: < 80%
inhibition [5]: < 80%
Ratio [6]: > 10
inhibition [7]: < 80%
IC50 [8]: 45 nM
inhibition [9]: < 80%
inhibition [10]: < 80%
inhibition [11]: < 80%
inhibition [12]: < 80%
inhibition [13]: < 80%
logD [14]: 2.7
inhibition [15]: < 80%
inhibition [16]: < 80%
inhibition [17]: < 80%
inhibition [18]: < 80%
inhibition [19]: < 80%
inhibition (Homo sapiens): < 80%
inhibition [20]: < 80%
inhibition [21]: > 50%
IC50 [22]: 1.1 nM
inhibition [23]: < 80%
inhibition [24]: < 80%
inhibition [25]: < 80%
AUC [26]: 3.8 µM·h
inhibition [27]: < 80%
IC50 (TGF-beta receptor type-1): 1.9 nM
inhibition [28]: > 50%
inhibition [29]: < 80%
inhibition [30]: < 80%
inhibition [31]: < 80%
INH [32]: 4.4 µM
inhibition [33]: < 80%
INH [34]: 0.12 µM
